Experimental data from patent US9505729B2, “Isoxazole analogs as mediators of transcriptional induction of E-cadherin” (Vanderbilt University, priority 2014, dated 2016).

System: E-cadherin expression in SW620 cells
Experiment: In-cell Western (ICW) cell-based functional assay of E-cadherin expression in SW620 cells
Conditions: Homo sapiens, SW-620; for fold induction at 10 µM: change in expression level of E-cadherin in response to 10 μM compound, SW620 cells, 24 hours; for EC50: inducement of E-cadherin expression in SW620 cells
Protocol: SW620 and H520 cells (5×10^4/100 μL) were seeded in a 96-well plate prior to treatment. Cells were treated with 10 μM concentration of synthesized compound in quadruplicate for 24 hours in RPMI 1640 supplemented medium and 100 μg/mL penicillin-streptomycin. The cells were then fixed with 100% methanol for 20 minutes at 4° C. The wells were then washed 2 times with PBS, permeabilized in 2% bovine serum albumin (BSA) and 0.2% TritonX-100 in PBS for 30 minutes at room temperature with gentle agitation, and blocked in LI-COR blocking buffer for 30 minutes at room temperature with gentle agitation. The cells were then incubated with the following primary antibodies: anti-E-Cadherin (1:500) and anti-α-Tubulin (1:1000) diluted in blocking buffer (1:1 dilution in PBS) for 2 hours at room temperature with gentle agitation. The cells were washed 4 times in PBS-T for 5 minutes each, and then incubated with the following secondary antibodies conjugated to a fluorescent entity: IRDye 800-conjugated goat anti-rabbit IgG (1:1000) and IRDye-700-conjugated goat anti-mouse IgG (1:2000) in blocking buffer (1:1 dilution in PBS) with gentle agitation for 1 h at room temperature. The cells were washed 4 times in PBS-T for 5 minutes each followed by a single wash with PBS. All liquid was removed from the wells and the plates were visualized and analyzed on the Odyssey IR imaging system (LI-COR Biosciences).
The assay was further optimized in the following manner. The cells were washed 2 times with PBS, fixed in 100% methanol at room temperature for 15 minutes, and again washed 2 times with PBS. The cells were then incubated with the following primary antibodies: anti-E-Cadherin (1:200) and anti-α-Tubulin (1:2000) diluted in ice cold 2% bovine serum albumin (BSA) and 0.2% TritonX-100 in PBS for 1 hour at room temperature with gentle agitation. The cells were washed 2 times in PBS and then incubated with the following secondary antibodies conjugated to a fluorescent entity: Licor 800-conjugated goat anti-rabbit IgG (1:2000) and IRDye-700-conjugated goat anti-mouse IgG (1:2000) in ice cold 2% BSA and 0.2% TritonX-100 in PBS with gentle agitation for 45 minutes at room temperature. The wells were washed 2 times in PBS, dried, and analyzed as previously mentioned.
N-(3-(Arylamino)alkyl)-5-arylisoxazole-3-carboxamide analogs were synthesized as described above. Changes in expression level of E-cadherin in response to 10 μM compound in SW620 cells was determined in the cell-based functional assay as described above, and the data are shown in Table II. The compound number corresponds to the compound numbers used in Table I.
EC50 of inducement of E-cadherin expression in SW620 cells was determined in the cell-based functional assay as described above, and the data are shown in Table III. The compound number corresponds to the compound numbers used in Table I.

SMILES: N#Cc1ccc(NCCCNC(=O)c2cc(-c3ccccc3)on2)nc1 [Compound 1, N-(3-((5-cyanopyridin-2-yl)amino)propyl)-5-phenylisoxazole-3-carboxamide]
- fold induction at 10 µM: 0.63

SMILES: O=C(NCCCNCc1c[nH]c2ccccc12)c1cc(-c2ccccc2)on1 [Compound 2, N-(3-(((1H-indol-3-yl)methyl)amino)propyl)-5-phenylisoxazole-3-carboxamide]
- fold induction at 10 µM: 0.68

SMILES: O=C(NCCCNCc1cccnc1)c1cc(-c2ccccc2)on1 [Compound 3, 5-phenyl-N-(3-((pyridin-3-ylmethyl)amino)propyl)isoxazole-3-carboxamide]
- fold induction at 10 µM: 0.7

SMILES: Cc1ncc(CNCCCNC(=O)c2cc(-c3ccccc3)on2)o1 [Compound 4, N-(3-(((2-methyloxazol-5-yl)methyl)amino)propyl)-5-phenylisoxazole-3-carboxamide]
- fold induction at 10 µM: 0.71

SMILES: O=C(NCCCNCc1ccccn1)c1cc(-c2ccccc2)on1 [Compound 5, 5-phenyl-N-(3-((pyridin-2-ylmethyl)amino)propyl)isoxazole-3-carboxamide]
- fold induction at 10 µM: 0.71

SMILES: O=C(NCCCN(Cc1ccccn1)Cc1ccccn1)c1cc(-c2ccccc2)on1 [Compound 6, N-(3-(bis(pyridin-2-ylmethyl)amino)propyl)-5-phenylisoxazole-3-carboxamide]
- fold induction at 10 µM: 0.82

SMILES: Cc1ncc(CN(CCCNC(=O)c2cc(-c3ccccc3)on2)Cc2cnc(C)o2)o1 [Compound 7, N-(3-(bis((2-methyloxazol-5-yl)methyl)amino)propyl)-5-phenylisoxazole-3-carboxamide]
- fold induction at 10 µM: 0.83

SMILES: O=C(NCCCNCc1ccc(O)c(O)c1)c1cc(-c2ccccc2)on1 [Compound 8, N-(3-((3,4-dihydroxybenzyl)amino)propyl)-5-phenylisoxazole-3-carboxamide]
- fold induction at 10 µM: 0.84

SMILES: COc1cncc(CNCCCNC(=O)c2cc(-c3ccccc3)on2)c1 [Compound 9, N-(3-(((5-methoxypyridin-3-yl)methyl)amino)propyl)-5-phenylisoxazole-3-carboxamide]
- fold induction at 10 µM: 0.89

SMILES: O=C(NCCCNCc1c[nH]c2ncccc12)c1cc(-c2ccccc2)on1 [Compound 10, N-(3-(((1H-pyrrolo[2,3-b]pyridin-3-yl)methyl)amino)propyl)-5-phenylisoxazole-3-carboxamide]
- fold induction at 10 µM: 0.91

SMILES: Cc1cc(CNCCCNC(=O)c2cc(-c3ccccc3)on2)on1 [Compound 11, N-(3-(((3-methylisoxazol-5-yl)methyl)amino)propyl)-5-phenylisoxazole-3-carboxamide]
- fold induction at 10 µM: 0.9

SMILES: O=C(NCCCNCc1ccc(O)cc1O)c1cc(-c2ccccc2)on1 [Compound 12, N-(3-((2,4-dihydroxybenzyl)amino)propyl)-5-phenylisoxazole-3-carboxamide]
- fold induction at 10 µM: 0.91

SMILES: CC(=O)n1cc(CNCCCNC(=O)c2cc(-c3ccccc3)on2)c2ccccc21 [Compound 13, N-(3-(((1-acetyl-1H-indol-3-yl)methyl)amino)propyl)-5-phenylisoxazole-3-carboxamide]
- fold induction at 10 µM: 0.91

SMILES: O=C(NCCCNCc1cnoc1)c1cc(-c2ccccc2)on1 [Compound 14, N-(3-((isoxazol-4-ylmethyl)amino)propyl)-5-phenylisoxazole-3-carboxamide]
- fold induction at 10 µM: 0.94

SMILES: O=C(NCCCN(Cc1cnoc1)Cc1cnoc1)c1cc(-c2ccccc2)on1 [Compound 15, N-(3-(bis(isoxazol-4-ylmethyl)amino)propyl)-5-phenylisoxazole-3-carboxamide]
- fold induction at 10 µM: 0.95

SMILES: O=C(NCCCNCc1ccccc1O)c1cc(-c2ccccc2)on1 [Compound 16, N-(3-((2-hydroxybenzyl)amino)propyl)-5-phenylisoxazole-3-carboxamide]
- fold induction at 10 µM: 0.98

SMILES: [N-]=[N+]=Nc1nccc(NCCCNC(=O)c2cc(-c3ccccc3)on2)n1 [Compound 17, N-(3-((2-azidopyrimidin-4-yl)amino)propyl)-5-phenylisoxazole-3-carboxamide]
- fold induction at 10 µM: 1.07

SMILES: O=C(NCCCNCc1ccccc1O)c1cc(-c2ccccc2)[nH]n1 [Compound 21, N-(3-((2-hydroxybenzyl)amino)propyl)-5-phenyl-1H-pyrazole-3-carboxamide]
- fold induction at 10 µM: 1.14

SMILES: O=C(NCCCNCc1cccnc1)c1cc(-c2ccccc2)[nH]n1 [Compound 22, 5-phenyl-N-(3-((pyridin-3-ylmethyl)amino)propyl)-1H-pyrazole-3-carboxamide]
- fold induction at 10 µM: 1.16

SMILES: O=C(NCCCNCc1ccccn1)c1cc(-c2ccccc2)[nH]n1 [Compound 23, 5-phenyl-N-(3-((pyridin-2-ylmethyl)amino)propyl)-1H-pyrazole-3-carboxamide]
- fold induction at 10 µM: 1.44

SMILES: Cc1ncc(CNCCCNC(=O)c2cc(-c3ccccc3)[nH]n2)o1 [Compound 24, N-(3-(((2-methyloxazol-5-yl)methyl)amino)propyl)-5-phenyl-1H-pyrazole-3-carboxamide]
- fold induction at 10 µM: 1.5

SMILES: Cc1ncc(CN(CCCNC(=O)c2cc(-c3ccccc3)[nH]n2)Cc2cnc(C)o2)o1 [Compound 25, N-(3-(bis((2-methyloxazol-5-yl)methyl)amino)propyl)-5-phenyl-1H-pyrazole-3-carboxamide]
- fold induction at 10 µM: 1.54

SMILES: O=C(NCCCNCc1c[nH]c2ccccc12)c1cc(-c2ccccc2)[nH]n1 [Compound 26, N-(3-(((1H-indol-3-yl)methyl)amino)propyl)-5-phenyl-1H-pyrazole-3-carboxamide]
- fold induction at 10 µM: 1.64

SMILES: O=C(NCCCN(Cc1ccc(O)c(O)c1)Cc1ccc(O)c(O)c1)c1cc(-c2ccccc2)[nH]n1 [Compound 27, N-(3-(bis(3,4-dihydroxybenzyl)amino)propyl)-5-phenyl-1H-pyrazole-3-carboxamide]
- fold induction at 10 µM: 1.67

SMILES: COc1cncc(CNCCCNC(=O)c2cc(-c3ccccc3)[nH]n2)c1 [Compound 28, N-(3-(((5-methoxypyridin-3-yl)methyl)amino)propyl)-5-phenyl-1H-pyrazole-3-carboxamide]
- fold induction at 10 µM: 1.8

SMILES: COc1cncc(CN(CCCNC(=O)c2cc(-c3ccccc3)[nH]n2)Cc2cncc(OC)c2)c1 [Compound 29, N-(3-(bis((5-methoxypyridin-3-yl)methyl)amino)propyl)-5-phenyl-1H-pyrazole-3-carboxamide]
- fold induction at 10 µM: 2.09

SMILES: O=C(NCCCNCc1c[nH]c2ncccc12)c1cc(-c2ccccc2)[nH]n1 [Compound 30, N-(3-(((1H-pyrrolo[2,3-b]pyridin-3-yl)methyl)amino)propyl)-5-phenyl-1H-pyrazole-3-carboxamide]
- fold induction at 10 µM: 2.33

SMILES: Cc1cc(CNCCCNC(=O)c2cc(-c3ccccc3)[nH]n2)on1 [Compound 31, N-(3-(((3-methylisoxazol-5-yl)methyl)amino)propyl)-5-phenyl-1H-pyrazole-3-carboxamide]
- fold induction at 10 µM: 2.52

SMILES: Cc1cc(CN(CCCNC(=O)c2cc(-c3ccccc3)[nH]n2)Cc2cc(C)no2)on1 [Compound 32, N-(3-(bis((3-methylisoxazol-5-yl)methyl)amino)propyl)-5-phenyl-1H-pyrazole-3-carboxamide]
- fold induction at 10 µM: 3.06

SMILES: O=C(NCCCNCc1ccc(O)cc1O)c1cc(-c2ccccc2)[nH]n1 [Compound 33, N-(3-((2,4-dihydroxybenzyl)amino)propyl)-5-phenyl-1H-pyrazole-3-carboxamide]
- fold induction at 10 µM: 3.4

SMILES: CC(=O)n1cc(CNCCCNC(=O)c2cc(-c3ccccc3)[nH]n2)c2ccccc21 [Compound 34, N-(3-(((1-acetyl-1H-indol-3-yl)methyl)amino)propyl)-5-phenyl-1H-pyrazole-3-carboxamide]
- fold induction at 10 µM: 3.58

SMILES: O=C(NCCCNCc1cnoc1)c1cc(-c2ccccc2)[nH]n1 [Compound 35, N-(3-((isoxazol-4-ylmethyl)amino)propyl)-5-phenyl-1H-pyrazole-3-carboxamide]
- fold induction at 10 µM: 3.59

SMILES: O=C(NCCCN(Cc1cnoc1)Cc1cnoc1)c1cc(-c2ccccc2)[nH]n1 [Compound 36, N-(3-(bis(isoxazol-4-ylmethyl)amino)propyl)-5-phenyl-1H-pyrazole-3-carboxamide]
- fold induction at 10 µM: 5.77
- EC50: 12 µM

SMILES: [N-]=[N+]=Nc1nccc(NCCCNC(=O)c2cc(-c3ccccc3)[nH]n2)n1 [Compound 37, N-(3-((2-azidopyrimidin-4-yl)amino)propyl)-5-phenyl-1H-pyrazole-3-carboxamide]
- fold induction at 10 µM: 6.09
- EC50: 15 µM
